The text below walks through data of ChEMBL document CHEMBL3880382, “TRH-like peptide derivatives as inhibitors of the TRH-degrading ectoenzyme” (2010).

Each structure is given as a SMILES string. The source made the active and inactive calls. No cut-off for these calls is given here. Non-standard residues stand in square brackets, D forms with d. Residues, ends and D or L forms follow the SMILES beside them. *: point of attachment. pGlu = O=C1CC[C@@H](C(=O)O)N1; NHBn = c1ccc(CN*)cc1

The target in test [1] is T1, Thyrotropin releasing hormone degrading enzyme (Sus scrofa) (UniProt A0A287AP33). Description: Substrate activity at pig brain TRH-DE assessed as retention time at 1 mM incubated for 18 hrs by HPLC analysis.
For test [2], the target named is Thyrotropin releasing hormone degrading enzyme (Sus scrofa, UniProt A0A287AP33). The experiment in a line: Inhibition of pig brain TRH-DE using Glp-His-ProAMC as substrate by DPP-4-based continuous fluorometric method.
Test [3] addresses T1, Thyrotropin releasing hormone degrading enzyme (Sus scrofa). Description: Substrate activity at pig brain TRH-DE assessed as Vmax to Km ratio.
For test [4] the target is unchanged. The experiment in a line: Substrate activity at pig brain TRH-DE assessed as rate of hydrolysis at 1 mM incubated for 18 hrs by HPLC analysis.
The test system of test [5] is Rattus norvegicus. Description: In vivo inhibition of TRH-DE in cannulated Wistar rat assessed as TRH-mediated increase in locomotion at 10 mg/kg, ip measured every 5 mins for 30 secs during 40 mins of observation period. It counts as functional, organism-based.
The test system of test [6] is Rattus norvegicus. Description: In vivo inhibition of TRH-DE in cannulated Wistar rat assessed as increase in TRH-mediated locomotion at 5 ug in 1 ul, icv after 30 mins. It counts as functional, organism-based.
Test [7] concerns the target T1, Thyrotropin releasing hormone degrading enzyme (Sus scrofa). The experiment in a line: Reversible inhibition of pig brain TRH-DE using Glp-His-ProAMC as substrate at 160 uM preincubated for 75 mins by DPP-4-based continuous fluorometric method.
For test [8] the target is unchanged. The experiment in a line: Competitive inhibition of pig brain TRH-DE at 12.5 to 50 uM using Glp-His-ProAMC as substrate by Lineweaver-Burk analysis.
The target in test [9] is T2, Thyrotropin-releasing hormone receptor (Rattus norvegicus, UniProt Q01717).
T2 sequence (Q01717 whole entry): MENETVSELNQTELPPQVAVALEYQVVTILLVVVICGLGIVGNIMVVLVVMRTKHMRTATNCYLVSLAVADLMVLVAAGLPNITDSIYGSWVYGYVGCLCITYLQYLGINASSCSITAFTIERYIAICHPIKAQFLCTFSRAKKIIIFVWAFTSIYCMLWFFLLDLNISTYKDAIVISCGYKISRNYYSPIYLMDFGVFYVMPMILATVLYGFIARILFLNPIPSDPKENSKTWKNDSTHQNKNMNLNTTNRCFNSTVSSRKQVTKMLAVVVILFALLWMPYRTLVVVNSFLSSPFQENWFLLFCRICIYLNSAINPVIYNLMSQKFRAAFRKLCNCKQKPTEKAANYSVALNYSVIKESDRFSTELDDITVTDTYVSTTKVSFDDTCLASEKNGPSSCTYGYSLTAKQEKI
Description: Displacement of [3H]-3MeHis-TRH from TRH receptor in Sprague-Dawley rat cortical membranes. In general terms: Displacement assays read how much labelled ligand stays bound in the presence of the test substance.

The target in test [10] is T1, Thyrotropin releasing hormone degrading enzyme (Sus scrofa). The experiment in a line: Inhibition of pig brain TRH-DE at 1 mM using Glp-His-ProAMC as substrate by DPP-4-based continuous fluorometric method.
The target is the same in test [11]. Description: Reversible inhibition of pig brain TRH-DE using Glp-His-ProAMC as substrate at 400 uM preincubated for 75 mins by DPP-4-based continuous fluorometric method.

By Ki is commonly meant the equilibrium dissociation constant of an inhibitor or competing ligand from its target. Read a high Ki as lower affinity. In general, inhibition refers to how much of the control response was suppressed.

T1 sequence (A0A287AP33 as listed by the source): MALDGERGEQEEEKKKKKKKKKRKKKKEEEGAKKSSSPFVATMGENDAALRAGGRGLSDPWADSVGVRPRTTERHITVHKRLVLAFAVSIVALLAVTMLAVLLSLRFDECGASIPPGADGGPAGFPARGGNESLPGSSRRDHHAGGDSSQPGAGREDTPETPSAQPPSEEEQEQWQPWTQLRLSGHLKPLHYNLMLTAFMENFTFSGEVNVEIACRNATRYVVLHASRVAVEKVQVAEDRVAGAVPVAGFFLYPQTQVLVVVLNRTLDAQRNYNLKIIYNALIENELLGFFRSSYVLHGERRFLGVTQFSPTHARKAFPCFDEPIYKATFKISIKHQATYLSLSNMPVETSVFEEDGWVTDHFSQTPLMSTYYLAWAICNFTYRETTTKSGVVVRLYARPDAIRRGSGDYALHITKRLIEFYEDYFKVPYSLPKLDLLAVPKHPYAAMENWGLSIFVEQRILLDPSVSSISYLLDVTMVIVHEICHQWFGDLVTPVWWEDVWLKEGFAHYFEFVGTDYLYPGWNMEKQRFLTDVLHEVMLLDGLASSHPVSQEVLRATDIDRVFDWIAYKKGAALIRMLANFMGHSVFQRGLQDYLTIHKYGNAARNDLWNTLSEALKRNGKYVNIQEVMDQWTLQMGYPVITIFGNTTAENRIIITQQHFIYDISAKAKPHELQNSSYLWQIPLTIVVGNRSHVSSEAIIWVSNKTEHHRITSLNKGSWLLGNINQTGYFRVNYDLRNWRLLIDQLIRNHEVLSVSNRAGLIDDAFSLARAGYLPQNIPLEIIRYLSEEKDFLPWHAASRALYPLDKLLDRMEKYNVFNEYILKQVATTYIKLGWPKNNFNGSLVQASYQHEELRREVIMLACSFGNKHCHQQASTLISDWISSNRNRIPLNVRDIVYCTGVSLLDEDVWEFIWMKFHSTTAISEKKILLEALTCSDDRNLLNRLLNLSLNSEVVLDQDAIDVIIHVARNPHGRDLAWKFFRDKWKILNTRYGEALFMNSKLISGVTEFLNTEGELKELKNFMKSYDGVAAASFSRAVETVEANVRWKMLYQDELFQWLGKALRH
Chain of Thyrotropin releasing hormone degrading enzyme (A0A287AP33 whole entry): as the sequence (A0A287AP33 as listed by the source) above

As for `NC(=O)C[C@H](NC(=O)[C@@H]1CCC(=O)N1)C(=O)N1CCC[C@H]1C(=O)NC(=O)C1CCCc2ccccc21` (some centres not stated), the Retention time in test [1] is 18.4 min. For the same compound, the inhibition constant Ki in test [2] came to 22.4 µM. Regarding `NC(=O)C[C@H](NC(=O)[C@@H]1CCC(=O)N1)C(=O)N1CCC[C@H]1C(=O)Nc1ccccc1CO`, the Retention time in [1] was determined as 11.9 min. The same compound registered a Ki in test [2] of 20.6 µM. On to `COc1ccc(NC(=O)[C@@H]2CCCN2C(=O)[C@H](CC(N)=O)NC(=O)[C@@H]2CCC(=O)N2)cc1`, for which, in test [1], the Retention time came to 15 min. In the case of `COc1cccc(NC(=O)[C@@H]2CCCN2C(=O)[C@H](CC(N)=O)NC(=O)[C@@H]2CCC(=O)N2)c1`, the Retention time in test [1] worked out at 15.9 min. `COc1ccccc1NC(=O)[C@@H]1CCCN1C(=O)[C@H](CC(N)=O)NC(=O)[C@@H]1CCC(=O)N1`: in [1], the Retention time turned out to be 15.4 min. In the case of `Cc1cc(=O)oc2cc(NC(=O)[C@@H]3CCCN3C(=O)[C@H](Cc3cnc[nH]3)NC(=O)[C@@H]3CCC(=O)N3)ccc12`, the Vmax/Km in [3] came to 0.04 U/mg/µM. On to `NC(=O)[C@@H]1CCCN1C(=O)[C@H](Cc1c[nH]cn1)NC(=O)[C@@H]1CCC(=O)N1`, for which the Activity in [4] is 2.54 U/mg. For the same compound, the Vmax/Km in test [3] was 0.08 U/mg/µM. For `O=C1CC[C@@H](C(=O)N[C@@H](Cc2cnc[nH]2)C(=O)N2CCC[C@H]2C(=O)O)N1` the same measures were 3.38 U/mg and 0.01 U/mg/µM. With `C[C@H](NC(=O)[C@@H]1CCC(=O)N1)C(=O)N1CCC[C@H]1C(N)=O` ([pGlu]-Ala-Pro-NH2), the Activity in test [4] was 0.02 U/mg. For the compound `N=C(N)NCCC[C@H](NC(=O)[C@@H]1CCC(=O)N1)C(=O)N1CCC[C@H]1C(N)=O` ([pGlu]-Arg-Pro-NH2), the Activity in [4] came out at 0.41 U/mg. For `NC(=O)C[C@H](NC(=O)[C@@H]1CCC(=O)N1)C(=O)N1CCC[C@H]1C(N)=O` ([pGlu]-Asn-Pro-NH2), the inhibition entry in [5], in test [6], in test [7] and in [8] was “Active” throughout. Further, the Ki in test [9] is 7.08 µM. Further, the inhibition in test [10] was 97%. `NC(=O)C[C@H](NC(=O)[C@@H]1CCC(=O)N1)C(=O)N1CCC[C@H]1C(=O)NCc1ccccc1` ([pGlu]-Asn-Pro-NHBn): the Retention time in test [1] was 14.3 min.

On to `NC(=O)[C@@H]1CCCN1C(=O)[C@H](CC(=O)O)NC(=O)[C@@H]1CCC(=O)N1` ([pGlu]-Asp-Pro-NH2), for which the inhibition in [10] was 1%. Turning to `NC(=O)CC[C@H](NC(=O)[C@@H]1CCC(=O)N1)C(=O)N1CCC[C@H]1C(N)=O` ([pGlu]-Gln-Pro-NH2), the inhibition entry in test [11] was “Active”. Further, in [10], the inhibition came out at 83%.

Regarding `NC(=O)[C@@H]1CCCN1C(=O)[C@H](CCC(=O)O)NC(=O)[C@@H]1CCC(=O)N1` ([pGlu]-Glu-Pro-NH2), in test [10], the inhibition was 17%.

In the case of `NC(=O)[C@@H]1CCCN1C(=O)CNC(=O)[C@@H]1CCC(=O)N1` ([pGlu]-Gly-Pro-NH2), in [10], the inhibition worked out at 8%.

Regarding `CC[C@H](C)[C@H](NC(=O)[C@@H]1CCC(=O)N1)C(=O)N1CCC[C@H]1C(N)=O` ([pGlu]-Ile-Pro-NH2), the Activity in [4] is 0.06 U/mg.
